For assay [1] the following is noted: cited from earlier work.
Assay [2] deals with Ang-(1-7) peptidase (CSF). Conditions: sheep CSF, earlier study; cited from earlier work.
Assay [3] deals with Ang-(1-7) peptidase (CSF). Put plainly: Peptidase kinetics. Conditions: sheep CSF, control and BMX; product [125I]-Ang-(1-4). Format: biochemical.
For assay [4], the system named is Ang-(1-7) peptidase (CSF). Put plainly: pH profile of [125I]-Ang-. Format: biochemical, sheep. Conditions: pH 5 to 8.5; N = 3.
For assay [5], the target named is TOP (thimet oligopeptidase). The note with it: cited from earlier work.
Assay [6] has as its system Ang-(1-7) peptidase (CSF). Put plainly: Inhibitor profile: [125I]-Ang-. Format: biochemical, sheep. The note with it: text to Figure 1D-F; pooled CSF.
Assay [7] addresses neurolysin. Conditions: cited from earlier work.
In assay [8] the target is neprilysin. The note with it: no reference given; quoted as known selective inhibitor; cited from earlier work.
The test system of assay [9] is Ang-(1-7) peptidase (CSF). Put plainly: Competition of peptides for conversion of [125I]-Ang-. Conditions: pooled CSF, inhibitor cocktail, 120 min, 37°C; Figure 4.

The Ki is a dissociation constant, usually derived from enzyme kinetics or from competition with a known ligand.

Regarding `C[C@H]1C[C@H]2[C@@H]3CCC4=CC(=O)C=C[C@]4(C)[C@@]3(F)[C@@H](O)C[C@]2(C)[C@@]1(O)C(=O)CO` [betamethasone], the “ACE2 activity in renal cortex, isolated tubules and urine, in words” value in [1] (BMX sheep) is recorded as “lower”. Also, in assay [1] (adult BMX offspring), the “ACE2 activity in the circulation, in words” value is “decreased” and the “soluble ACE activity in the circulation, in words” value is “increased”. Moreover, in assay [1] (antenatal exposure, by 6 months of age), the “MAP, in words” value was “elevated MAP”. The “baroreflex sensitivity (BRS), in words” value in assay [1] (antenatal exposure, by 6 weeks) is “decreased BRS”.

For `O=C(O)c1cc[c]([Hg][Cl])cc1` [PCMB, p-chloromercuribenzoic acid], in assay [2], the “conversion of Ang-(1-7) to Ang-(1-4) in CSF, in words” value was “abolished”.

“[^125I]-Ang-(1-7): iodinated Ang-(1-7), substrate; chloramine T method”: in [3], the site of hydrolysis entry is “Tyr^4-Ile^5 bond”. Further, the “conversion in BMX versus control CSF, in words” value in assay [4] is “higher activity than the control”.

Take “1-carboxy-3-phenyl-propyl (Ala-Ala-Phe-4-Abz-OH [CFP]”: the Ki in assay [5] is 180 nM; in [7], 4000 nM. The “attenuation of metabolism of Ang-(1-7) to Ang-(1-4), in words” value (from here on “attenuation”) in assay [6] is given as “failed to attenuate”.

For the compound `O=C(O)C(O)CNC(=O)[C@H](Cc1ccccc1)NC(CCc1ccccc1)C(=O)O` (stereo partly drawn) [SCH39370], in [8], the Ki is 11 nM. In assay [6], the “attenuation” value is given as “failed to attenuate”.

For the compound Pro-Ile, in [6], the “attenuation” value is “failed to attenuate”. Also, the Ki in assay [7] was 90000 nM. In addition, the “sensitivity of neurolysin forms to inhibition, in words” value in [7] (cytosolic and mitochondrial forms) is reported as “sensitive to Pro-Ile inhibition”.

neurotensin: in [9], the “extent of inhibition of enzyme activity over the concentration range” value is 15% and the “extent of inhibition of enzyme activity, in words” value is recorded as “poor competitor”.

Source of the values: publication PMC4157337 (Peptides, 2013).
